We go through six compounds from patent US9440956B2, “Indole, indazole and benzimidazole arylamides as P2X3 and P2X2/3 antagonists” (Roche Palo Alto LLC, priority 2010, dated 2016).

For experiment [1], the target named is T1, rat P2X3 receptor (Rattus norvegicus, UniProt P49654).
T1 construct: expressed in transfected cells; host or cells: CHO-K1
T1 sequence (P49654 1-397): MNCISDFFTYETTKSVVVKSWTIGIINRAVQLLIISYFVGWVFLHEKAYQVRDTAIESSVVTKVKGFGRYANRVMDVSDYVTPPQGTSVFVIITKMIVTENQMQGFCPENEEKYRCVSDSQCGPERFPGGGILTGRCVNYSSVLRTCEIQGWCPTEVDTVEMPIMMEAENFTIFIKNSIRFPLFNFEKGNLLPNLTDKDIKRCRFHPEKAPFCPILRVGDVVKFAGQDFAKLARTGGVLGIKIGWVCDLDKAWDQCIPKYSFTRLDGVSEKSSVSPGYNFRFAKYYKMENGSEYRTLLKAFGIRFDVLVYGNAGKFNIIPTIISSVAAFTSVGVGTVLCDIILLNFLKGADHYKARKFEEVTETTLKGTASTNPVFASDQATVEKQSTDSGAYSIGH
As to the kind of experiment: P2X3 FLIPR (Fluorometric Imaging Plate Reader) assay. The class given is cell-based. The settings on record: CHO-K1 cells transfected with cloned rat P2X3; agonist α,β-meATP 1 μM; Fluo-3 calcium fluorescence. As to the method: (§1) P2X3/P2X2/3 FLIPR (Fluorometric Imaging Plate Reader) Assay
(§2) CHO-K1 cells were transfected with cloned rat P2X3 or human P2X2/3 receptor subunits and passaged in flasks. 18-24 hours before the FLIPR experiment, cells were released from their flasks, centrifuged, and resuspended in nutrient medium at 2.5×10^5 cells/ml. The cells were aliquoted into black-walled 96-well plates at a density of 50,000 cells/well and incubated overnight in 5% CO2 at 37° C. On the day of the experiment, cells were washed in FLIPR buffer (calcium- and magnesium-free Hank's balanced salt solution, 10 mM HEPES, 2 mM CaCl2, 2.5 mM probenecid; FB). Each well received 100 μl FB and 100 μl of the fluorescent dye Fluo-3 AM [2 μM final conc.]. After a 1 hour dye loading incubation at 37° C., the cells were washed 4 times with FB, and a final 75 μl/well FB was left in each well.
(§3) Test compounds (dissolved in DMSO at 10 mM and serially diluted with FB) or vehicle were added to each well (25 μl of a 4× solution) and allowed to equilibrate for 20 minutes at room temperature. The plates were then placed in the FLIPR and a baseline fluorescence measurement (excitation at 488 nm and emission at 510-570 nm) was obtained for 10 seconds before a 100 μl/well agonist or vehicle addition. The agonist was a 2× solution of α,β-meATP producing a final concentration of 1 μM (P2X3) or 5 μM (P2X2/3). Fluorescence was measured for an additional 2 minutes at 1 second intervals after agonist addition. A final addition of ionomycin (5 μM, final concentration) was made to each well of the FLIPR test plate to establish cell viability and maximum fluorescence of dye-bound cytosolic calcium. Peak fluorescence in response to the addition of α,β-meATP (in the absence and presence of test compounds) was measured and inhibition curves generated using nonlinear regression. PPADS, a standard P2X antagonist, was used as a positive control.

Experiment [2] concerns the target T2, human P2X2/3 receptor (Homo sapiens, UniProt P56373+Q9UBL9).
T2 construct: expressed in transfected cells; host or cells: CHO-K1
T2 sequence (Q9UBL9 1-471): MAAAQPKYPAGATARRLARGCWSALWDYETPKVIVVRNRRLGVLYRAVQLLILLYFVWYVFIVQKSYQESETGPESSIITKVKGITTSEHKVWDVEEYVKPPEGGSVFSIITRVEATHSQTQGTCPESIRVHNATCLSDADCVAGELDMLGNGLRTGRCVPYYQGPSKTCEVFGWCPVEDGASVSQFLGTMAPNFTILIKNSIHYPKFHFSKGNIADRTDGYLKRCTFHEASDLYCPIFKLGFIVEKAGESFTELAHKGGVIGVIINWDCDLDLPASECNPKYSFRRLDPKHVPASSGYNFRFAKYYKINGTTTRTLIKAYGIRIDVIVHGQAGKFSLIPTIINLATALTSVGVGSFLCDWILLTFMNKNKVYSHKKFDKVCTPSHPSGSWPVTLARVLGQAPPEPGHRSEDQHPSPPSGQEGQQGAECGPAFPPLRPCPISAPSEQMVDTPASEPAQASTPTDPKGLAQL
T2 sequence (P56373 1-397): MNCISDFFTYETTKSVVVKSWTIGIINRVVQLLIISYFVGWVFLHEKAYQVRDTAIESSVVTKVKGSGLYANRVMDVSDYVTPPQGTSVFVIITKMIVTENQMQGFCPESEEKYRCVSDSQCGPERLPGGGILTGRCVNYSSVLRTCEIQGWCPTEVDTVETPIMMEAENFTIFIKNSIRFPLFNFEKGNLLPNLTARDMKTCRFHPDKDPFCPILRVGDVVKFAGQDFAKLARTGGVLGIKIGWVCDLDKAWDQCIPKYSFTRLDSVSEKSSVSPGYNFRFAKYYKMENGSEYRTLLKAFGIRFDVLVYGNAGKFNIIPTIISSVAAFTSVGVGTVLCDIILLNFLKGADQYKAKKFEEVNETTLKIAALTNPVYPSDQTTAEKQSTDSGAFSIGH
As to the kind of experiment: P2X2/3 FLIPR (Fluorometric Imaging Plate Reader) assay. As to conditions: CHO-K1 cells transfected with human P2X2/3; agonist α,β-meATP 5 μM; Fluo-3 calcium fluorescence. The format is cell-based. How it is done:
as §1, §2, §3

For `Cc1ccc(-n2ncc3c(-c4ccc(C)cn4)cc(C(=O)N[C@@H](C)CO)cc32)cc1` [Compound 17, 4-(5-Methyl-pyridin-2-yl)-1-p-tolyl-1H-indazole-6-carboxylic acid ((S)-2-hydroxy-1-methyl-ethyl)-amide], the “pKi P2X3” value in experiment [1] amounted to 7.38. In addition, the “pKi P2X2/3” value in experiment [2] was determined as 4.97.

In the case of `Cc1ccc(-c2cc(C(=O)NCc3cnc(C)cn3)cc3c2cnn3-c2ccccc2C)nc1` [Compound 18, 4-(5-Methyl-pyridin-2-yl)-1-o-tolyl-1H-indazole-6-carboxylic acid (5-methyl-pyrazin-2-ylmethyl)-amide], in experiment [1], the “pKi P2X3” value is given as 8.01. Moreover, in experiment [2], the “pKi P2X2/3” value came out at 7.26.

Consider `Cc1ccc(-c2cc(C(=O)N[C@@H](C)CO)cc3c2cnn3-c2ccccc2C)nc1` [Compound 19, 4-(5-Methyl-1-pyridin-2-yl)-1-o-tolyl-1H-indazole-6-carboxylic acid ((S)-2-hydroxy-1-methyl-ethyl)-amide], for which, in experiment [1], the “pKi P2X3” value is reported as 7.98. Moreover, the “pKi P2X2/3” value in experiment [2] is given as 6.

For `Cc1ccc(-c2cc(C(=O)N[C@@H](C)CO)cc3c2cnn3-c2ccccc2C(C)C)nc1` [Compound 20, 1-(2-Isopropyl-phenyl)-4-(5-methyl-pyridin-2-yl)-1H-indazole-6-carboxylic acid ((S)-2-hydroxy-1-methyl-ethyl)-amide], in experiment [1], the “pKi P2X3” value was 7.55. Moreover, in experiment [2], the “pKi P2X2/3” value is listed as 6.19.

Turning to `Cc1ccc(-c2cc(C(=O)NCc3cnc(C)cn3)cc3c2ccn3CC(C)C)nc1` [Compound 21, 1-Isobutyl-4-(5-methyl-pyridin-2-yl)-1H-indole-6-carboxylic acid (5-methyl-pyrazin-2-ylmethyl)-amide], in experiment [1], the “pKi P2X3” value is listed as 7.17. For the same compound, the “pKi P2X2/3” value in experiment [2] stood at 5.92.

In the case of `Cc1ccc(-c2cc(C(=O)NCc3ccc(C)nn3)cc3c2ccn3C(C)C)nc1` [Compound 25, 1-Isopropyl-4-(5-methyl-pyridin-2-yl)-1H-indole-6-carboxylic acid (6-methyl-pyridazin-3-ylmethyl)-amide], in experiment [1], the “pKi P2X3” value is recorded as 7.27. Also, in experiment [2], the “pKi P2X2/3” value was 5.32.
